Source: US20020115613A1, “Treatment of prostate cancer” (priority 2001, published 2002)
* marks the point of attachment. Cbz = O=C(OCc1ccccc1)*; CH2F = FC*

Key:
prostate cancer cells = details: cited from earlier work
PC3AR cells = assay: Induction of apoptosis / cell survival (FIG. 1E, 6A); format: cell-based; details: 5 μM hydroxyflutamide for 5 days, then 400 ng/ml TRAIL, FIG. 1E
Description: PC3AR cells are a clonal cell line derived by stable transfection of PC3 with a full-length human AR cDNA (Dai, J. L., et al., Steroids, 61, 531-539, 1996). PC3Neo cells were stably transfected with neomycin vector alone. Cells were grown in RPMI 1640 with 5% FBS (Hyclone, Logan, Utah), 100 units/ml penicillin, 100 μg/ml streptomycin, 0.25 μg/ml fungizone and G418 (350 μg/ml) to select for neomycin-resistant cells. In experiments using antiandrogens, cells were maintained in 5% DCC stripped serum for at least 48 hr before treatment with hydroxyflutamide (Sigma Chemical Co., St. Louis, Mo.). The medium and all the drugs were replaced every two days. Cells were treated with 200 ng/ml, 400 ng/ml or 600 ng/ml of TRAIL (Biomol Research Laboratories, Inc, Plymouth Meeting, Pa.) for 2, 4, 6, 8, 16 and 20 hr. Cells were treated with 5 μM hydroxyflutamide for 5 days before the commencement of treatment with 400 ng/ml TRAIL.
Two methods were used to measure induction of apoptosis by drug treatment: the MTT assay and the Apoptosense assay. The MTT assay measures mitochondrial enzyme activity and is indicative of the number of surviving cells. The Apoptosense assay is an ELISA, which utilizes M30 antibody to recognize the C-terminal domain (amino acids 387-396) of cytokeratin 18 that is exposed in apoptotic cells after cleavage by caspases.
Cells were seeded in 96-well plates (6000 cells/well) and treatment was started 24 hr after seeding the cells. After completion of the treatment, cells were incubated at 37° C. with the MTT reagent for 3 hr and processed according to manufacturers instructions (Promega Corporation, Madison, Wis.). Color development was measured at 490 nm on a Spectra MAX 340 microplate reader (Molecular Devices, Menlo Park, Calif.).

LNCaP cells = assay: Western blotting of death receptors, caspases, Bid, cytochrome c, Akt; format: cell-based; details: LNCaP treated with TRAIL and/or Mifepristone; inhibitor pre-treatment one hr; FIG. 7
Description: (§1) LNCaP were obtained from American Type Culture Collection (Rockville, Md.) and LNCaP C4-2 cells were purchased from Urocor Inc., Oklahoma City, Okla. Cells were grown in RPMI 1640 medium supplemented with 10% (LNCaP) or 5% (LNCaP C4-2) fetal bovine serum (Hyclone, Logan, Utah) and grown in the presence of 5% CO2 at 37° C. Cells were treated with 10 μM Mifepristone (Sigma, St. Louis, Mo.) for three days or with increasing concentrations (from 200 ng/ml to 600 ng/ml) of TRAIL (Biomol Research Laboratories, Inc., Plymouth Meetings, Pa.) for varying time intervals 2, 4, 6, 8, 16, 20 and 24 hours (hr). Thus, for treatment with Mifepristone, cells were treated with Mifepristone for three days and then some cells treated (without washing) with TRAIL for indicated periods. Upon completion of the experiment, cells were harvested, and total proteins, cytosol or mitochondrial fractions were isolated as described below. At least three experiments were conducted with a minimum of four plates per treatment per experiment.
(§2) For experiments using inhibitors, the cells were pre-treated with increasing concentrations of the inhibitors (10 μM to 100 μM) for one hr and then with TRAIL. Caspase-8-specific (Z-IETD-FMK) and caspase-9-specific ([…]) inhibitors were purchased from Enzyme Systems Products, Livermore, Calif. The inhibitors were dissolved in DMSO; to limit cellular toxicity, care was taken not to exceed 0.2% DMSO in the culture medium. Appropriate controls included vehicle treated cells with or without the inhibitors.
(§3) Cells were harvested by trypsinization, washed in 1×PBS and cell pellets resuspended in lysis buffer (100 mM Tris-HCl pH 8.0, 0.1% Triton X 100 and protease inhibitor cocktail from Roche Diagnostic Corporation, Indianapolis, Ind.). Cells were incubated over ice for 30 min and centrifuged at 10,000 g at 4° C. for 10 min. The supernatant was collected and the protein concentration estimated using Bio-Rad protein reagent (Bio-Rad Laboratories, Hercules, Calif.).
(§4) Proteins (50 μg, unless stated otherwise) were separated on NuPAGE 10% Bis-Tris gels (Novex pre-cast mini gels, InVitrogen, Carlsbad, Calif.) at 100 volts for 1 hour in the presence of 1×MES-SDS running buffer (InVitrogen, Carlsbad, Calif.). Separated proteins were transferred to (PVDF) membranes (Bio-Rad Laboratories, Hercules, Calif.) at 42 volts for 2.5 hr using a Novex XCell II blotting apparatus in MES transfer buffer in the presence of NuPAGE antioxidant. Transfer of the proteins to the polyvinylidene difluoride (PVDF) membrane was confirmed by staining with Ponceau S (Sigma, St. Louis, Mo.). The blots were blocked in 5% non-fat dry milk in TBS, washed twice for 10 min each with TBS containing 0.1% Tween-20 and incubated for 2 hr at RT with primary antibody diluted in TBS containing 0.5% milk.
(§5) The following antibodies were used in the immunoblots: DR4, DR5 and cytochrome c (Imgenex, San Diego, Calif.), BID (BioSource International, Camarillo, Calif.), caspases-8, -9, and Akt (Cell Signaling Technology, Beverely, Mass.), caspase-3 (BD Pharmingen, San Diego, Calif.) Iκβ and XIAP (Cell Signaling Technology, Beverly, Mass.), cFLIP (StressGen Biotechnology Corp, Victoria, Canada), actin (Sigma Chemical Co., St. Louis, Mo.) and Cox II (Molecular Probes, Eugene, Oreg.). Immunoreactive bands were visualized using ECL detection system (Amersham, Pharmacia Biotech, Arlington Heights, Ill.) and signals were developed after exposure to X-ray film (X-Omat films, Eastman Kodak Company, Rochester, N.Y.).
(§6) For separation of mitochondrial and cytosolic fractions, cells were trypsinized, centrifuged at 600 g for 10 min at 4° C., washed twice in ice-cold PBS and re-suspended in buffer A (20 mM HEPES-KOH, pH 7.2, 10 mM KCl, 1.5 mM MgC12, 1 mM sodium-EDTA, 1 mM sodium-EGTA, 250 mM sucrose and protease inhibitor cocktail). Cells were homogenized on ice with a glass Dounce homogenizer (30 strokes) and were centrifuged at 750 g for 5 min at 4° C. […]

LNCaP C4-2 cells = assay: as above; format: cell-based; details: LNCaP C4-2 treated with TRAIL and/or Mifepristone; inhibitor pre-treatment one hr; FIG. 7
Description: as §1, §2, §3, §4, §5, §6

Compound	ability to induce apoptosis in prostate cancer cells (Sridhar et al., 2001) (prostate cancer cells)	effect of anti-androgen pre-treatment on response to TRAIL (PC3AR cells)	caspase-8 activation in presence of caspase inhibitor (LNCaP cells)	tBid in presence of caspase inhibitor (LNCaP cells)	caspase-8 activation in presence of caspase inhibitor (LNCaP C4-2 cells)	tBid in presence of caspase inhibitor (LNCaP C4-2 cells)	caspase-3 activation in presence of caspase inhibitor (LNCaP cells)	caspase-7 activation in presence of caspase inhibitor (LNCaP cells)	caspase-3 activation in presence of caspase inhibitor (LNCaP C4-2 cells)	caspase-7 activation in presence of caspase inhibitor (LNCaP C4-2 cells)
CC/C(=C(\c1ccccc1)c1ccc(OCCN(C)C)cc1)c1ccccc1 [Tamoxifen]	marginal ability to induce apoptosis									
CC(C)(O)C(=O)Nc1ccc([N+](=O)[O-])c(C(F)(F)F)c1 [hydroxyflutamide, reference compound]		did not alter their response to TRAIL								
Cbz-IETD-CH2F			blocked activation of caspase-8	tBid was not present	blocked activation of caspase-8	tBid was not present				
Cbz-LEHD-CH2F			did not affect caspase-8 activity	significantly reduced the levels of tBid	did not affect caspase-8 activity	significantly reduced the levels of tBid	reduced caspase-3 activity	blocked activation of caspase-7	reduced caspase-3 activity	blocked activation of caspase-7
